Measured values published in ChEMBL document CHEMBL1128971, “Pyrazolo[3,4-d]pyrimidines: C4, C6 substitution leads to adenosine A1 receptor selectivity” (Bioorg Med Chem Lett, 1996).

Experiments:
Adenosine receptor A1 = molecular target: T1, Adenosine receptor A1 (Rattus norvegicus, UniProt P25099); test: Inhibition of A1 agonist (R)-[3H]N 6-(phenylisopropyl) adenosine binding to membranes from rat whole brain
T1 sequence (P25099 whole entry): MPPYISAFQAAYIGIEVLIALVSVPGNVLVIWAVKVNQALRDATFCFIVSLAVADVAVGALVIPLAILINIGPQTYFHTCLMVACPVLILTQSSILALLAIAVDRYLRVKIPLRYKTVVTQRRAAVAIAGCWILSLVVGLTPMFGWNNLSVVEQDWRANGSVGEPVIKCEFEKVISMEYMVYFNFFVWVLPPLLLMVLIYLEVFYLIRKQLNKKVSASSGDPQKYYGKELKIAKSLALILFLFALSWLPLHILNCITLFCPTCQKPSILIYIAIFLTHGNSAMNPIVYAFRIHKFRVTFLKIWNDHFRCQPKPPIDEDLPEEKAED

[1] = molecular target: Adenosine receptors; A1 & A2a (Rattus norvegicus) (UniProt P25099+P30543); test: Ratio of binding affinity against adenosine A1 receptor and adenosine A2a receptor; assay type: protein assay
Sequence of Adenosine receptors; A1 & A2a (Rattus norvegicus) (P30543 whole entry, looked up, one chain of several): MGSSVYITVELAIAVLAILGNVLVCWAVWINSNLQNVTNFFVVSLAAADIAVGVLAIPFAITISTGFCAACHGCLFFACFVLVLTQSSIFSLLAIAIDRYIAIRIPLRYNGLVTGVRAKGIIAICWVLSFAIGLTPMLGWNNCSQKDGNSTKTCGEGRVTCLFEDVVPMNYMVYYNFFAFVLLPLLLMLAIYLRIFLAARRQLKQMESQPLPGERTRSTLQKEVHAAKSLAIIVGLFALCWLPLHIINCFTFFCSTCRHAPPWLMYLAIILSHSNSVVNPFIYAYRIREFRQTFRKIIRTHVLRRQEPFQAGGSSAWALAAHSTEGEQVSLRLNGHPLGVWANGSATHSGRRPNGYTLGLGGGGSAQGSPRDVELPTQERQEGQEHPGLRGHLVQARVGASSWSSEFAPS

Adenosine receptor A2a = Adenosine receptor A2a (Rattus norvegicus, UniProt P30543); test: Inhibition of A2a agonist [3H]-CGS- 21680 binding to rat striatal membranes; assay type: cell membranes, Membrane
Sequence of Adenosine receptor A2a (P30543 whole entry): as the sequence (P30543 whole entry, looked up, one chain of several) above

Structure (SMILES): CCCSc1nc(SC(CC)C(N)=O)nc2c1cnn2-c1ccccc1 (centres undefined)
- Ki (Adenosine receptor A1): 29.5 nM
- Ratio [1]: 13000
- Ki (Adenosine receptor A2a): > 38500 nM

Structure (SMILES): CCCCC(Sc1nc(NC)c2cnn(-c3ccccc3)c2n1)C(N)=O (centres undefined)
- Ratio [1]: 331
